*1 amine or outer side, *2 acyl side, *3 side chain or, on linkers, in order; H or OH if unused. Where a SMILES comes first, the peptide text is derived from it. Bridges are numbered along the chain shown (N, C = ends). [ ]: non-standard residue; d: D form. The star is where a group is joined. X5 = O=C(NC(=O)[*:2])C(N[*:1])c1cc(Cl)c(O)c(Cl)c1; X3 = NCCCCN(C(=O)C(N[*:1])c1ccc(O)cc1)C(=O)[*:2]; X4 = NC1=NC(CC(N[*:1])C(=O)[*:2])CN1; Hpg = N[CH](C(=O)O)c1ccc(O)cc1; X2 = CCC(C)CCCC/C=C/C=C/C(=O)*; Cit = NC(=O)NCCC[CH](N)C(=O)O
Assay: GHS categories as the set defines them, by LD50: 1 up to 5, 2 up to 50, 3 up to 300, 4 up to 2000, 5 above 2000 mg/kg
Settings: rat; in vivo; po

Row | SMILES | GHS category
1 | CCCCCCCCOC(=O)CCc1cc(C(C)(C)C)c(O)c(C(C)(C)C)c1 | 5
2 | CCC(C)CCCC/C=C/C=C/C(=O)NC(CC(=O)O)C(=O)NC1C(=O)NC(c2ccc(O)cc2)C(=O)N(CCCCN)C(=O)NC(C(C)O)C(=O)NC(c2ccc(O)cc2)C(=O)NC(c2ccc(O)cc2)C(=O)NC(C(C)O)C(=O)NC(CCCNC(N)=O)C(=O)NC(CC2CNC(N)=N2)C(=O)NC(c2ccc(O)cc2)C(=O)NC(CO)C(=O)NC(c2cc(Cl)c(O)c(Cl)c2)C(=O)NC(=O)NC(CC2CNC(N)=N2)C(=O)NC(C)C(=O)NC(c2ccc(O)cc2)C(=O)OC1C (stereo not drawn) (X2-DT[X3]T[Hpg][Hpg]T[Cit][X4][Hpg]S[X5][X4]A[Hpg]; ester 2-C; configuration not given here) | 5
3 | Cn1nnnc1SCCCC(=O)NCc1ccco1 | 4
4 | CCCC(=O)c1ccc2c(c1)OCC(=O)N2C | 5
5 | c1ccc(COc2ccc3ccccc3c2)cc1 | 5
6 | NS(=O)(=O)c1cc2c(cc1Cl)N=C(CSCc1ccccc1)NS2(=O)=O | 5
7 | NCC1(CC(=O)O)CCCCC1 | 5
8 | N#CCCn1ccnc1 | 4
9 | CNC(=O)N(C)c1nc2ccccc2s1 | 5
10 | Cn1c(=O)oc2cc(C(=O)c3ccc(Cl)cc3)ccc21 | 5
11 | COc1ccc(-c2ccccc2)cc1NNC(=O)OC(C)C | 5
12 | COC12CC(COC3=CC(=O)CC3)CN(C)C1Cc1cn(C(C)(C)C)c3cccc2c13 (stereo not drawn) | 4
13 | FC(F)(F)c1cccc(C(F)(F)F)c1 | 5
14 | C=C(c1ccccc1)c1ccccc1 | 5
15 | CC(C)OC(=O)N[C@H](C(=O)N[C@H](C)c1nc2ccc(F)cc2s1)C(C)C | 5
16 | CC(C)(C)c1ccc(N(CCN2CCCCC2)c2cccc(Cl)c2)cc1 | 5
17 | CC(C)=CCCC(C)CCOCC=O (stereo not drawn) | 5
18 | FC(F)(Cl)C(Cl)(Cl)Cl | 5
19 | CC(C)C[C@H](N)C(=O)O | 5
20 | CCCCC1C=C(C)CC(C)O1 (stereo not drawn) | 5
21 | CCCC(=O)OC(C)(C)Cc1ccccc1 | 5
22 | O=C(O)CCCCCCCCCCC(=O)O | 5

Row | SMILES | GHS category
23 | CN1CCN(c2c(F)cc3c(=O)c(C(=O)O)cn(CCF)c3c2F)CC1 | 5
24 | C=COCCOCCOCCOC=C | 5
25 | CCC(=O)N[C@H]1CCc2nc(N)sc2C1 | 5
26 | Oc1cc(Cl)cc(Br)c1 | 5
27 | C=C1c2cccc(O)c2C(=O)C2=C(O)[C@]3(O)C(=O)C(C(N)=O)=C(O)[C@@H](N(C)C)[C@@H]3[C@@H](O)[C@H]12 | 5
28 | CCN(CC)c1ccc(N=Nc2ncc([N+](=O)[O-])s2)cc1 | 5
29 | CO/N=C(/C(=O)N[C@@H]1C(=O)N2C(C(=O)OCOC(=O)C(C)(C)C)=C(C)CS[C@H]12)c1csc(N)n1 | 5
30 | Clc1ccc2oc(C3(Cn4cncn4)OCCCO3)cc2c1 | 4
31 | CN1C(C(=O)Nc2ccccc2)=C(O)c2ccccc2S1(=O)=O | 5
32 | OC(Cn1ccnc1)c1ccc(CCc2ccccc2)cc1 (stereo not drawn) | 5
33 | Nc1nc(=O)[nH]cc1F | 5
34 | CCN(CC)C(C)C(=O)c1ccccc1 (stereo not drawn) | 4
35 | CCC=CCC=O | 5
36 | CCC/C=C/COC(C)=O | 5
37 | CCCCc1c(Cc2ccc(-c3ccccc3-c3nn[nH]n3)cc2)c(=O)nc2nc(C)[nH]n12 | 4
38 | CC[n+]1c(C=Cc2ccc(N3CCCC3)cc2)cccc1C=Cc1ccc(N2CCCC2)cc1 | 5
39 | C[C@H]1CO[C@@](Cn2ccnc2)(c2cc3cc(Cl)cc(Cl)c3o2)O1 | 4
40 | CC1CNCCN1SC=S (stereo not drawn) | 5
41 | CN(C)c1ccc(NC(=O)CCCSc2nnnn2C)cc1 | 4
42 | CCCCCCCC/C=C\CCCCCCCC(=O)OC[C@H](O)[C@H]1OC[C@H](OC(=O)CCCCCCC/C=C\CCCCCCCC)[C@H]1OC(=O)CCCCCCC/C=C\CCCCCCCC | 5
43 | CCCNC(=O)Cc1cnc2cccc(C)n2c1=O | 3
44 | CC1(C)COC(Cn2cncn2)(c2cc3cc(Cl)cc(Cl)c3o2)OC1 | 4

Row | SMILES | GHS category
45 | CN(C)c1ccc(C=Nc2ccccc2C(=O)O)cc1 | 4
46 | CC1(C)C2CC[C@]3(C)C(CC=C4[C@H]5C[C@](C)(C(=O)O)CC[C@]5(C)CC[C@]43C)[C@@]2(C)CC[C@@H]1OC(=O)C=CC(=O)O (stereo partly drawn) | 5
47 | CNC(=O)Oc1ccc(N(C)C)c(C)c1 | 2
48 | CCOC(=O)c1nn(-c2ccc(OC)cc2)c2c1CCN(c1ccc(N3CCCCC3=O)cc1)C2=O | 5
49 | CNC(=O)C(=NNc1ccccc1Cl)C(C)=O | 5
50 | Cc1cccc2ncc(C(=O)NC3CCCCCC3)c(=O)n12 | 3
51 | COC(OC)C(C)Cc1ccc(C(C)C)cc1 (stereo not drawn) | 5
52 | O=C(O)c1ccccc1C(=O)c1ccc(-c2ccccc2)cc1 | 5
53 | COc1ccc(CCN2CCC(Nc3nc4ccccc4n3Cc3ccc(F)cc3)CC2)cc1 | 5
54 | CN1C(C(=O)Nc2ccccn2)=C(O)c2sc(O)cc2S1(=O)=O | 3
55 | Cn1c(=O)c2[nH]c(=O)[nH]c2n(C)c1=O | 5
56 | C=C(C)COCC/C=C\CC | 5
57 | O=C(O)CCCCC(=O)O | 5
58 | FC(F)(F)c1nc(NC2CC2)c2ncn(CC3CC3)c2n1 | 3
59 | CC(C)(C)OOC(C)(C)CCC(C)(C)OOC(C)(C)C | 5
60 | CCOC(=O)[C@H](CCc1ccccc1)N[C@H]1CS[C@H](c2cccs2)CN(CC(=O)O)C1=O | 5
61 | CC(=O)CC(=O)O[C@H]1C[C@@H](C)CC[C@@H]1C(C)C | 5
62 | CCC(C)(C)c1ccccc1 | 5
63 | O=C1CCCCCN1SSN1CCCCCC1=O | 5
64 | COCCOc1nc(Nc2ccc(C=Cc3ccc(Nc4nc(OCCOC)nc(N(C)CCS(=O)(=O)O)n4)cc3S(=O)(=O)O)c(S(=O)(=O)O)c2)nc(N(C)CCS(=O)(=O)O)n1 | 5
65 | CC[C@H](C)C(=O)O[C@H]1C[C@@H](C)C=C2C=C[C@H](C)[C@H](CC[C@@H]3C[C@@H](O)CC(=O)O3)[C@H]21 | 5
66 | CO[C@H]1C=CO[C@@]2(C)Oc3c(C)c(O)c4c(O)c(c(/C=N/N5CCN(C6CCCC6)CC5)c(O)c4c3C2=O)NC(=O)C(C)=CC=C[C@H](C)[C@H](O)[C@@H](C)[C@@H](O)[C@@H](C)[C@H](OC(C)=O)[C@@H]1C | 5

Row | SMILES | GHS category
67 | Clc1ccc(N/C(=N/C2CCCCC2)c2ccccc2)cc1Cl | 5
68 | CCn1c2ccccc2c2ccccc21 | 5
69 | CCCCn1c(C)c(CC(=O)O)c2c1CC(C)(C)CC2=O | 5
70 | O=S(=O)(O)c1cccc(Nc2nc(NCCO)nc(Nc3ccc(/C=C/c4ccc(Nc5nc(NCCO)nc(Nc6cccc(S(=O)(=O)O)c6)n5)cc4S(=O)(=O)O)c(S(=O)(=O)O)c3)n2)c1 | 5
71 | CCCCCCCCCCCCCCCCCC(=O)OCC | 5
72 | C[C@H]1O[C@H](OC[C@H]2O[C@H](O)[C@H](OS(=O)(=O)O)[C@@H](OS(=O)(=O)O)[C@@H]2OS(=O)(=O)O)[C@H](OS(=O)(=O)O)[C@@H](OS(=O)(=O)O)[C@@H]1O | 5
73 | CN1C(=O)CCc2c(OCCCN3CCC(Cc4ccccc4)CC3)cccc21 | 4
74 | O=C1CCCCCCCCCCCCCCO1 | 5
75 | O=C1CC[C@H]2CO[C@@H]1O2 | 5
76 | CC(=O)OC(C)c1ccccc1 (racemic) | 5
77 | CC(C)COC(=O)Nc1nc(N2CC=CCC2)cc2nc(=O)on12 | 5
78 | O=C(c1ccc(Oc2ccccc2)cc1)c1ccc(C(=O)c2ccc(Oc3ccccc3)cc2)cc1 | 5
79 | CC(C)=CCC(C#N)(CCN(C)C)c1cccc2ccccc12 (stereo not drawn) | 4
80 | CCCC(=O)OC[C@@H](OC(=O)CCC)[C@@H](OC(=O)CCC)[C@H](Cn1c2nc(=O)[nH]c(=O)c-2nc2cc(C)c(C)cc21)OC(=O)CCC | 5
81 | Cc1cc(OP(Oc2cc(C)c(C(C)(C)C)cc2C(C)(C)C)Oc2cc(C)c(C(C)(C)C)cc2C(C)(C)C)c(C(C)(C)C)cc1C(C)(C)C | 5
82 | CCNc1nc(Cl)nc(NCC(=O)O)n1 | 5
83 | CCCCC(CC)COCOCC(CC)CCCC (stereo not drawn) | 5
84 | O=C1OC(CN2CCCCC2)CC12CC(CN1CCCCC1)OC2=O (stereo not drawn) | 5
85 | CC1(C)S[C@@H]2[C@H](NC(=O)C(N)c3ccccc3)C(=O)N2[C@H]1C(=O)OC1OC(=O)c2ccccc21 (stereo partly drawn) | 4
86 | CCN(CC)CC1CC2(CC(CN(CC)CC)OC2=O)C(=O)O1 (stereo not drawn) | 5
87 | COc1cc2nc(N3CCCC(N(C)Cc4ccc5c(c4)OCO5)C3)nc(N)c2cc1OC (stereo not drawn) | 4
88 | CCN(C(=O)CCCSc1nnnn1C)C1CCCCC1 | 4

Row | SMILES | GHS category
89 | CCCc1c(Cc2ccc(-c3ncccc3-c3nn[nH]n3)cc2)c(=O)nc2nc[nH]n12 | 4
90 | COCCNC(=O)c1ccnc(C(=O)NCCOC)c1 | 5
91 | O=C1OC(=O)c2c(Br)c(Br)c(Br)c(Br)c21 | 5
92 | Cc1ccc(C(=O)O)cc1[N+](=O)[O-] | 5
93 | CC(O)C(O)C(=O)C(O)C(O)Oc1cccc2c1C(=O)c1c(O)cc(C(=O)O)cc1C2C1c2cc(C(=O)O)cc(O)c2C(=O)c2c(OC(O)C(O)C(=O)C(O)C(C)O)cccc21 (stereo not drawn) | 5
94 | CC1CCC2C(C)(C)C3CC12CC1OC13C (stereo not drawn) | 5
95 | CCCN(CCC)c1c([N+](=O)[O-])cc(S(N)(=O)=O)cc1[N+](=O)[O-] | 5
96 | CCc1cccc(CC)c1NC(=O)c1sc(N)nc1C | 4
97 | CCCCCCCCCCCCBr | 5
98 | Nc1nc(=O)c2c([nH]1)NCC(CNc1ccc(C(=O)N[C@@H](CCC(=O)O)C(=O)O)cc1)N2C=O (stereo partly drawn) | 5
99 | Fc1ccccc1C1=NCC(=S)N(CC(F)(F)F)c2ccc(Cl)cc21 | 5
100 | O=C(NNc1cccc(C(F)(F)F)c1)c1cccnc1Cl | 4
101 | CCCCCC(O)CC (stereo not drawn) | 5
102 | NC(=O)CCNCCO | 5
103 | O=C1Cc2cccc(F)c2N1 | 4
104 | C=C[Si](C)(C)O[Si](C)(C)C=C | 5
105 | Cc1cccc(C)c1NC(=O)C1CCCCN1C (stereo not drawn) | 5
106 | CCCC(CCC)C(=O)Oc1cc(C(C)C)ccc1C | 5
107 | CN1CN(C)CN(C)C1 | 4
108 | CCOc1ccc(OC(=O)c2ccccc2OC(N)=O)cc1 | 5

Reference: the CATMoS acute toxicity set (Mansouri et al. 2021)
